Experimental findings from BindingDB's records for doi:10.1016/j.bmcl.2019.05.020 (Meiji Pharmaceutical University, 2019) are described below.

This assay has as its target Amyloid-beta precursor protein (Homo sapiens, UniProt P05067). The assay is described as follows: Inhibition of human amyloid beta (1 to 40) assessed as reduction in aggregation measured after 24 hrs by ThT fluorescence assay.

pIC50: −log10 of the molar value. Bounds are passed on as bounds.

Sequence of Amyloid-beta precursor protein (P05067 whole entry): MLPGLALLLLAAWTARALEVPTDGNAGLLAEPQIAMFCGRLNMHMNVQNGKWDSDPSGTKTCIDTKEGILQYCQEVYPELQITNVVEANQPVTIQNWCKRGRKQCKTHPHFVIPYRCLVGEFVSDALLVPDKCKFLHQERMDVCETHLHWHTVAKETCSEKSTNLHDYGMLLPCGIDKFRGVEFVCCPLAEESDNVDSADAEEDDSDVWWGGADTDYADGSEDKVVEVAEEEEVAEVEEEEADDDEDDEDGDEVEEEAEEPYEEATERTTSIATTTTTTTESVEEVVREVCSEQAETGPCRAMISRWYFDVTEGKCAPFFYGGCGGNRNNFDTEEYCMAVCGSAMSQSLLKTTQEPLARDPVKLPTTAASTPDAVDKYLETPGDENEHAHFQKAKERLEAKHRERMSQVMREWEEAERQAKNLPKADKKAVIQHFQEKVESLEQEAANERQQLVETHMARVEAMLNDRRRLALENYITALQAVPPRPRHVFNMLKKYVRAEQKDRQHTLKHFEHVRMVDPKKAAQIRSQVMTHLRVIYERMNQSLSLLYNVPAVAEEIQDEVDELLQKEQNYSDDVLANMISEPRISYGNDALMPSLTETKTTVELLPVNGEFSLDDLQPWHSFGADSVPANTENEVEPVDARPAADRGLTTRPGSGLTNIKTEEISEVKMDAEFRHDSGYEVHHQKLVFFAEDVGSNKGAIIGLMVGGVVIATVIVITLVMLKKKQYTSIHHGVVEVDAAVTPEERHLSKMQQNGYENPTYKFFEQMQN

`COc1ccc(-c2cc(=O)c3c(O)cc(O)c(-c4cc(-c5cc(O)c6c(=O)cc(O)cc-6o5)ccc4O)c3o2)cc1` [4'''-methylamentoflavone]: the negative-log IC50 (pIC50) was 5.31.

Regarding `COc1ccc(-c2cc(O)c3c(=O)cc(O)cc-3o2)cc1-c1c(OC)cc(O)c2c(=O)cc(-c3ccc(O)cc3)oc12` [4',7''-di-O-methyl-amentoflavone], the negative logarithm of the IC50 (pIC50) is under 4.30.

Consider `COc1ccc(-c2cc(=O)c3c(O)cc(OC)c(-c4cc(-c5cc(O)c6c(=O)cc(OC)cc-6o5)ccc4OC)c3o2)cc1` [7,4',7'',4'''-O-methyl-amentoflavone], for which the negative-log IC50 (pIC50) is under 4.30.

Consider `COc1cc2oc(-c3ccc(OC)c(-c4c(OC)cc(O)c5c(=O)cc(-c6ccc(O)cc6)oc45)c3)cc(O)c-2c(=O)c1` [7-O-methyl-isoginkgetin], for which the pIC50 is under 4.30.

As to `COc1ccc(-c2cc(=O)c3c(O)cc(OC)c(-c4cc(-c5cc(O)c6c(=O)cc(OC)cc-6o5)ccc4O)c3o2)cc1` [heveaflavone], the negative logarithm of the IC50 (pIC50) is under 4.30.

As to `COc1ccc(-c2cc(=O)c3c(O)cc(OC)c(-c4cc(-c5cc(O)c6c(=O)cc(O)cc-6o5)ccc4OC)c3o2)cc1` [kayaflavone], the negative-log IC50 (pIC50) is under 4.30.

Regarding `COc1ccc(-c2cc(=O)c3c(O)cc(O)c(-c4cc(-c5cc(O)c6c(=O)cc(OC)cc-6o5)ccc4OC)c3o2)cc1` [sciadopitisin], the pIC50 is under 4.30.

As for `COc1cc2oc(-c3ccc(O)c(-c4c(O)cc(O)c5c(=O)cc(-c6ccc(O)cc6)oc45)c3)cc(O)c-2c(=O)c1` [sequoiaflavone], the pIC50 is 5.31.

On to `COc1cc(O)c2c(=O)cc(-c3ccc(O)cc3)oc2c1-c1cc(-c2cc(O)c3c(=O)cc(O)cc-3o2)ccc1O` [sotetsuflavone], for which the negative-log IC50 (pIC50) is under 4.30.
